The values that follow are results of earlier work, collected in the CATMoS acute toxicity set (Mansouri et al. 2021).

Where “and” joins values, the source holds several entries; their conditions need not be identical. Identical values can stand only once.

The nature of the data set: rat acute oral toxicity. The settings on record: in vivo.
In the case of `CCOC(=O)COC(=O)c1cc(Oc2ccc(C(F)(F)F)cc2Cl)ccc1[N+](=O)[O-]`, the LD50 (usually the dose at which mortality reaches 50%) was 1480 mg/kg. `COP(=S)(OC)SC1CCSc2ccc(Cl)cc21` (stereo not given): the median lethal dose (LD50) is 200 mg/kg.

For the molecule `CCOC(C1=NCC(CC)(CC)CN1)c1cccc(Cl)c1` (stereo not given), the LD50 is 110 mg/kg.

Take `CCCC(=O)Nc1c(I)cc(I)c(CC(CC)C(=O)O)c1I` (stereo not given): the LD50 was 6500 mg/kg. Turning to `CCCCCOc1cccc(NC(=O)O[C@@H]2CCCC[C@H]2N2CCCC2)c1`, the LD50 was 1030 mg/kg. Turning to `CCOP(=S)(OCC)OCCS(=O)(=O)CC`, the LD50 is 90 mg/kg. For the molecule `CCCCCCCCCCOC(=O)c1ccccc1C(=O)OCCCCCCCC`, the LD50 was 45000 mg/kg.

For `O=C1C(Cl)=C(Cl)C(Cl)(Cl)C1(Cl)Cl`, the median lethal dose (LD50) is 178 mg/kg. `CCC(Br)(CC)C(=O)NC(N)=O`: the 50% lethal dose (LD50) is 316 mg/kg. For the molecule `S=C1NCNCN1`, the LD50 is 4.6 mg/kg.

For the molecule `CCOC(=S)c1ccc(Cl)cc1`, the LD50 is 995 mg/kg. `ClC1=C(Cl)C2(Cl)C3C4OC4C(Cl)C3C1(Cl)C2(Cl)Cl` (stereo not given): the LD50 is 15 mg/kg. As for `NCCNCc1ccccc1O`, the 50% lethal dose (LD50) was 3700 mg/kg. Regarding `CCNC(=O)Nc1ncc([N+](=O)[O-])s1`, the median lethal dose (LD50) is 2150 mg/kg.

Take `O=C1c2ccccc2C(=O)c2c1cccc2S(=O)(=O)O`: the LD50 is 20000 mg/kg. On to `CCOP(=O)(OCC)SCSCC`, for which the LD50 was 0.25 mg/kg. Consider `COc1c(C)ccc(C)c1N(COC(C)C)C(=O)CCl`, for which the median lethal dose (LD50) is 1730 mg/kg. Regarding `Cc1ccc(N=c2sccn2C)c(C)c1`, the LD50 is 725 mg/kg.

Turning to `CCc1ccc2c(c1)C(=O)c1ccccc1C2=O`, the LD50 is 2800 mg/kg. As for `ClCC(Cl)(Cl)C(Cl)Cl`, the median lethal dose (LD50) is 819 mg/kg. As for `CCCCCCCCCCCCCCCC(=O)OCC(=O)[C@@]1(O)[C@H](C)C[C@H]2[C@@H]3CCC4=CC(=O)C=C[C@]4(C)[C@@]3(F)[C@@H](O)C[C@@]21C`, the median lethal dose (LD50) is 315 mg/kg. With `CN1C2CCC1CC(OC(=O)C(C)(CO)c1ccccc1)C2` (stereo not given), the LD50 is 1100 mg/kg. For `O=C(CF)Nc1ccc(-c2ccccc2)cc1`, the LD50 is 10 mg/kg. Regarding `CCCCCCOCC(O)COc1ccccc1C(=O)O` (stereo not given), the 50% lethal dose (LD50) was 2150 mg/kg. Consider `CCCCc1c(C)nc2ccccn2c1=O`, for which the LD50 is 1100 mg/kg.

Turning to `Oc1ccc(C(c2ccc(O)cc2)c2ccccn2)cc1`, the LD50 was 8550 mg/kg.

On to `C=C1CC[C@H](O)C/C1=C/C=C1\CCC[C@]2(C)[C@@H]([C@H](C)CCCC(C)C)CC[C@@H]12`, for which the LD50 was 42 mg/kg. `C=C(C#N)OC(C)=O`: the median lethal dose (LD50) is 100 mg/kg.

Take `O=C(Cc1cccs1)N[C@@H]1C(=O)N2C(C(=O)[O-])=C(C[n+]3ccccc3)CS[C@H]12`: the LD50 was 2500 mg/kg. As for `CC(=O)c1ccc2c(c1)N(CCCN1CCOCC1)c1ccccc1S2`, the LD50 is 2500 mg/kg. Regarding `Nc1ccncc1`, the LD50 was 32 mg/kg. Turning to `CN(C)N=O`, the LD50 is 37 mg/kg. Turning to `Nc1ccc(Oc2ccc(C(c3ccc(Oc4ccc(N)cc4)cc3)(C(F)(F)F)C(F)(F)F)cc2)cc1`, the LD50 is 1340 mg/kg.

As to `CC1(C)C2CC=C(CCO)C1C2` (stereo not given), the LD50 was 890 mg/kg.

With `O=[N+]([O-])c1ccc(Cl)cc1C(F)(F)F`, the 50% lethal dose (LD50) is 554 mg/kg. For `COP(=O)(OC)SC(CC(=O)OC(C)C)C(=O)OC(C)C` (stereo not given), the median lethal dose (LD50) is 120 mg/kg. On to `Cc1cc(C)c(C2C(=O)c3ccccc3C2=O)c(C)c1`, for which the 50% lethal dose (LD50) was 1000 mg/kg.

On to `O=C(CF)NCc1ccc(Br)cc1`, for which the 50% lethal dose (LD50) was 410 mg/kg.

In the case of `CC(O)Cn1cnc2c1c(=O)n(C)c(=O)n2C` (stereo not given), the LD50 was 460 mg/kg. Take `CC(CN1CCN(CCOCCO)CC1)CN1c2ccccc2Sc2ccc(Cl)cc21` (stereo not given): the LD50 is 400 mg/kg.

For the molecule `CCCCC(CC)CNC(=O)CC(C)OC(=O)CCC(=O)O` (stereo not given), the LD50 was 12100 mg/kg.

In the case of `CC(C)(Oc1ccc(Cl)cc1)C(=O)OCCCOC(=O)C(C)(C)Oc1ccc(Cl)cc1`, the 50% lethal dose (LD50) was 7300 mg/kg. Consider `N#Cc1cc([N+](=O)[O-])ccc1N`, for which the 50% lethal dose (LD50) is 3880 mg/kg. Take `O=C1c2ccccc2C(=O)C1c1c(Cl)cccc1Cl`: the 50% lethal dose (LD50) is 470 mg/kg.

For `COc1cc2[nH]c(=N)sc2cc1OC`, the LD50 is 1160 mg/kg. `COc1ccc2c(c1)CCC(N(CCCCOC(=O)c1ccc(OC)c(OC)c1)C(C)C)C2` (stereo not given): the LD50 is 1540 mg/kg. Turning to `CCOc1ccc(-n2c(C)nc3ccccc3c2=O)cc1`, the 50% lethal dose (LD50) was 4800 mg/kg.

Consider `C[N+]1(C)CCN(CC(O)(c2ccccc2)C2CCCCC2)CC1` (stereo not given), for which the LD50 was 958 mg/kg. With `CN(C)CC#N`, the LD50 was 50 mg/kg. As to `COCc1cc(C(C)(C)C)c(O)c(C(C)(C)C)c1`, the median lethal dose (LD50) is 10600 mg/kg. Turning to `O=C(O[C@H]1C[C@H]2CC[C@@H](C1)[N+]21CCCC1)C(O)(c1ccccc1)c1ccccc1`, the LD50 is 1510 mg/kg. `CCCCCCCCCc1cccc(OCCOCC(=O)O)c1`: the median lethal dose (LD50) is 880 mg/kg. For the molecule `CC1COC2(c3ccccc3Cl)c3cc(Cl)ccc3NC(=O)CN12` (stereo not given), the 50% lethal dose (LD50) is 4500 mg/kg. In the case of `CN(N=O)c1ccc(N=O)cc1`, the median lethal dose (LD50) was 1370 mg/kg.

As to `COC(=O)/C=C(\C)OP(=O)(OC)OC`, the LD50 was 3 mg/kg.

In the case of `COc1c(Cl)cc(Cl)c(Cl)c1C(=O)O`, the LD50 was 300 mg/kg. For the molecule `O=C(O)C=CC(=O)O`, the LD50 is 8000 mg/kg and 3380 mg/kg.

Take `COP(=O)(OC)Oc1ccc([N+](=O)[O-])c(Cl)c1`: the median lethal dose (LD50) was 10 mg/kg.

Turning to `Nc1ccc(-c2ccc(-n3nc4ccc5c(S(=O)(=O)O)cc(S(=O)(=O)O)cc5c4n3)cc2)cc1`, the LD50 was 7210 mg/kg. With `COC(=O)C(C)Oc1ccc(Oc2ncc(C(F)(F)F)cc2Cl)cc1` (stereo not given), the LD50 was 393 mg/kg.
